Assay results from ChEMBL document CHEMBL1201862, “PubChem BioAssay data set” (2004).
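Tested at 5 concentrations; 48 h exposure; 96-well plates; endpoints linearly interpolated, else capped at highest concentration. GI50 = concentration required for 50% inhibition of growth.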 Calls of active or inactive are those of the source. Cut-off read from the data, not from the text of the source: active = GI50 up to about 1.1 µM and inactive = higher.

How the values were obtained:
Assay in all cases: DTP human tumour cell line panel, 48 h
786-0 = tested on: 786-0
A549 = tested on: A549
ACHN = tested on: ACHN
BT-549 = tested on: BT-549
CAKI-1 = tested on: CAKI-1
CCRF-CEM = tested on: CCRF-CEM
COLO 205 = tested on: COLO 205
DU-145 = tested on: DU-145
EKVX = tested on: EKVX
HCC 2998 = tested on: HCC 2998
HCT-116 = tested on: HCT-116
HCT-15 = tested on: HCT-15
HL-60 = tested on: HL-60
HOP-62 = tested on: HOP-62
HOP-92 = tested on: HOP-92
HT-29 = tested on: HT-29
Hs-578T = tested on: Hs-578T
IGROV-1 = tested on: IGROV-1
K562 = tested on: K562
KM12 = tested on: KM12
LOX IMVI = tested on: LOX IMVI
M14 = tested on: M14
MCF7 = tested on: MCF7
MDA-MB-231 = tested on: MDA-MB-231
MDA-MB-435 = tested on: MDA-MB-435
MDA-N = tested on: MDA-N
MOLT-4 = tested on: MOLT-4
Malme-3M = tested on: Malme-3M
NCI-H226 = tested on: NCI-H226
NCI-H23 = tested on: NCI-H23
NCI-H460 = tested on: NCI-H460
NCI-H522 = tested on: NCI-H522
NCI/ADR-RES = tested on: NCI/ADR-RES
OVCAR-3 = tested on: OVCAR-3
OVCAR-4 = tested on: OVCAR-4
OVCAR-5 = tested on: OVCAR-5
OVCAR-8 = tested on: OVCAR-8
PC-3 = tested on: PC-3
RPMI-8226 = tested on: RPMI-8226
SF-268 = tested on: SF-268
SF-295 = tested on: SF-295
SF-539 = tested on: SF-539
SK-MEL-28 = tested on: SK-MEL-28
SK-MEL-2 = tested on: SK-MEL-2
SK-OV-3 = tested on: SK-OV-3
SN12C = tested on: SN12C
SNB-19 = tested on: SNB-19
SNB-75 = tested on: SNB-75
SR = tested on: SR
SW-620 = tested on: SW-620
TK-10 = tested on: TK-10
U-251 = tested on: U-251
UACC-257 = tested on: UACC-257
UACC-62 = tested on: UACC-62
UO-31 = tested on: UO-31

Cc1ccc2nc(CN3CCCC(O)C3)cc(=O)n2c1 (stereo not given)
GI50 (786-0): > 100 µM (inactive) | GI50 (A549): > 100 µM (inactive) | GI50 (ACHN): > 100 µM (inactive) | GI50 (BT-549): > 100 µM (inactive) | GI50 (CAKI-1): > 100 µM (inactive) | GI50 (CCRF-CEM): > 100 µM (inactive) | GI50 (COLO 205): > 100 µM (inactive) | GI50 (DU-145): > 100 µM (inactive) | GI50 (EKVX): > 100 µM (inactive) | GI50 (HCC 2998): > 100 µM (inactive) | GI50 (HCT-116): > 100 µM (inactive) | GI50 (HCT-15): > 100 µM | GI50 (HL-60): > 100 µM (inactive) | GI50 (HOP-62): > 100 µM (inactive) | GI50 (HOP-92): > 100 µM (inactive) | GI50 (HT-29): > 100 µM (inactive) | GI50 (Hs-578T): > 100 µM (inactive) | GI50 (IGROV-1): > 100 µM (inactive) | GI50 (K562): > 100 µM (inactive) | GI50 (KM12): > 100 µM (inactive) | GI50 (LOX IMVI): > 100 µM (inactive) | GI50 (M14): > 100 µM (inactive) | GI50 (MCF7): > 100 µM (inactive) | GI50 (MDA-MB-231): > 100 µM (inactive) | GI50 (MDA-MB-435): > 100 µM (inactive) | GI50 (MDA-N): > 100 µM (inactive) | GI50 (MOLT-4): > 100 µM (inactive) | GI50 (Malme-3M): > 100 µM (inactive) | GI50 (NCI-H226): > 100 µM (inactive) | GI50 (NCI-H23): > 100 µM (inactive) | GI50 (NCI-H460): > 100 µM (inactive) | GI50 (NCI-H522): > 100 µM (inactive) | GI50 (NCI/ADR-RES): > 100 µM (inactive) | GI50 (OVCAR-3): > 100 µM (inactive) | GI50 (OVCAR-4): > 100 µM (inactive) | GI50 (OVCAR-5): > 100 µM (inactive) | GI50 (OVCAR-8): > 100 µM (inactive) | GI50 (PC-3): > 100 µM (inactive) | GI50 (RPMI-8226): > 100 µM (inactive) | GI50 (SF-268): > 100 µM (inactive) | GI50 (SF-295): > 100 µM (inactive) | GI50 (SF-539): > 100 µM (inactive) | GI50 (SK-MEL-28): > 100 µM (inactive) | GI50 (SK-MEL-2): > 100 µM (inactive) | GI50 (SK-OV-3): > 100 µM (inactive) | GI50 (SN12C): > 100 µM (inactive) | GI50 (SNB-19): > 100 µM (inactive) | GI50 (SNB-75): > 100 µM (inactive) | GI50 (SR): > 100 µM (inactive) | GI50 (SW-620): > 100 µM (inactive) | GI50 (TK-10): > 100 µM (inactive) | GI50 (U-251): > 100 µM (inactive) | GI50 (UACC-257): > 100 µM (inactive) | GI50 (UACC-62): > 100 µM (inactive) | GI50 (UO-31): > 100 µM (inactive)
